Experiments:
GABA A α1 receptor = assay: mRNA expression level of GABA A α1 receptor in cerebral cortex (real-time PCR), caffeine-induced sleep disturbance; assay type: in vivo, mouse; conditions: 30 mg/kg saponarin or 200 mg/kg St. John's wort orally for 14 days, caffeine i.p.; cortex obtained on Day 15; compared to control; FIG. 6, p<0.01
Description: (§1) 30 mg/kg saponarin (Sigma-Aldrich, St. Louis, Mo., USA; dissolved in 0.5% CMC solution) and 200 mg/kg St. John's wort (dissolved in 0.5% CMC solution) were aliquoted to satisfy the administration amount and orally administered one hour before the caffeine administration. To the normal and stress control, 0.5% CMC solution was orally administered while 30 mg/kg saponarin was administered to the saponarin group and 200 mg/kg St. John's wort was administered to the positive control, in an amount of 0.1 ml for each.
(§2) Nine-week old male C57BL/6 mouse with bodyweight of 20 to 22 g was obtained from DBL Co., Ltd. (Eumseong-Gun, Chungcheong-Bukdo, Korea). […]
(§3) Expression pattern of the gene in cerebral cortex, which has been removed from each test animal upon the completion of the test, was determined by real-time PCR. The cerebral cortex tissues of a mouse were treated with RNAzolB (Tel-Test) to extract RNA, and then analyzed by cDNA and real-time PCR instrument using One-step SYBR Green PCR kit (AB science).
(§4) The cerebral cortex tissues were added with 500 μl of RNAzol(B), disrupted using a homogenizer, and then added with 50 μl of chloroform (CHCl3) followed by mixing again for 15 seconds. […] Real time quantitative PCR was carried out by using Applied Biosystems 7500 Real-Time PCR system (Applied Biosystems, USA). […]

[1] = system: SD rat induced to have sleep disturbance by stress; assay: Electroencephalography (EEG) measurement in animal model with sleep disturbance induced by stress; assay type: in vivo; conditions: foot pad electric shock stress for 5 days, compared to stress control
Description: The saponarin administration group was administered orally with 0.1 ml of saponarin, 30 minutes before the stress application. The normal and stress control were administered orally with 0.1 ml of a solvent. Operation was carried out for four divided groups, i.e., normal, control, saponarin, and positive control (St. John's wort), and total 24 animals were used, i.e., 6 animals per group.
A male rat (7 week old) was suitably fed with solid feed and water till the test day. After the acclimation for 1 week in an environment in which temperature of 23 to 25° C., humidity of 45 to 60%, and illuminance of 200 to 300 LUX, and 12 hour light and dark cycle are maintained, the animals were subjected to the test. For the operation, a 7-week old Sprague Dawley (SD) rat was anesthetized by intraperitoneal injection of 40 mg/kg pentobarbital, and then placed and fixed on a stereotaxic instrument (Stoelting CO, USA) such that the bregma and lambda are in horizontal alignment. After suppressing subgaleal bleeding, hairs were shaved and the skull was exposed by excising the scalp and removing the periosteum. Based on the anatomy drawing by Paxinos & Watson, a hole was created by using drill, an electrode was inserted to reach the dura mater, and an electrode composed of two silver wires was inserted to neck muscle to record an electromyogram. On top of the cranial bone of cerebellum, pins attached with an electrode for recording an electroencephalogram and an electrode for recording an electromyogram were placed and fixed on top of the cranial bone by applying dental cement. […]
After the stress for 5 days, the rat was orally administered with each pharmaceutical, and, after 30 minutes, EEG recording was carried out in a light-blocking acrylic cylinder (PM 8:00 to AM 8:00). The wake time and sleep (REM and NonREM) time were recorded by using SleepSign Ver. […]
After 30 minutes, foot pad electric shock was applied to the SD rats to induce for 5 days sleep disturbance caused by stress. Wake time was then measured for each rat.

cholecystokinin = assay: mRNA expression level of cholecystokinin in cerebral cortex (real-time PCR), caffeine-induced sleep disturbance; assay type: in vivo, mouse; conditions: 30 mg/kg saponarin or 200 mg/kg St. John's wort orally for 14 days, caffeine i.p.; cortex obtained on Day 15; compared to control; FIG. 5B
Description: as §1, §2, §3, §4

[2] = system: C57BL/6 mouse induced to have sleep disturbance by caffeine; assay: Open field test in animal model with sleep disturbance induced by caffeine; assay type: in vivo; conditions: 30 mg/kg saponarin or 200 mg/kg St. John's wort orally for 14 days, compared to control
Description: as §1
Nine-week old male C57BL/6 mouse with bodyweight of 20 to 22 g was obtained from DBL Co., Ltd. (Eumseong-Gun, Chungcheong-Bukdo, Korea). The animal was supplied with a sufficient amount of water and solid feed (not added with any antibiotics, Samyang Animal Feed Co.) till the test day, and it was used for the experiment after acclimation for 1 week under an environment with temperature of 22±2° C., humidity of 55±15%, and 12-hour light and dark cycle. The experiment was carried out as illustrated in FIG. 1. Chemicals were orally administered every day for 14 days in total, and, according to intraperitoneal administration of 10 mg/kg caffeine 1 hour thereafter, sleep disturbance was induced.
Open field test is to determine sleep disturbance and amelioration level obtained by pharmaceutical in which the determination is made by measuring the voluntary movement of a mouse after entering an unfamiliar field for the first time. A mouse was placed at the center (30×30×30 cm) of a white box, which is made of white acryl, and then travel distance (total distance moved), mobility time, mobility frequency and immobility time for 1 hour were analyzed by using Video tracking software (Ethovision XT, Noldus, Nederland).
The saponarin administration group was orally administered with 30 mg/kg saponarin. After one hour, the animal was intraperitoneally administered with 10 mg/kg caffeine to induce sleep disturbance caused by caffeine for 14 days. Then, travel distance of the mouse was measured.
Then, the mobility time and mobility frequency were measured.
Thereafter, the immobility time of mouse was measured.

neuropeptide Y = assay: mRNA expression level of neuropeptide Y in cerebral cortex (real-time PCR), caffeine-induced sleep disturbance; assay type: in vivo, mouse; conditions: 30 mg/kg saponarin or 200 mg/kg St. John's wort orally for 14 days, caffeine i.p.; cortex obtained on Day 15; compared to control; FIG. 5A
Description: as §1, §2, §3, §4

O=c1cc(-c2ccc(O)cc2)oc2cc(O[C@@H]3O[C@H](CO)[C@@H](O)[C@H](O)[C@H]3O)c([C@@H]3O[C@H](CO)[C@@H](O)[C@H](O)[C@H]3O)c(O)c12 [saponarin, (1S)-1,5-anhydro-1-[7-(beta-D-glucopyranosyloxy)-5-hydroxy-2-(4-hydroxyphenyl)-4-oxo-4H-chromen-6-yl]-D-glucitol]
mRNA expression of GABA A α1 receptor in cerebral cortex (GABA A α1 receptor): increased mRNA expression of GABA A α1 receptor in significant sense | wake time during sleep by EEG ([1]; 30 mg/kg saponarin or 200 mg/kg St. John's wort orally, FIG. 8, p<0.05): decreased in significant sense | REM sleep time by EEG ([1]; 30 mg/kg saponarin orally, FIG. 9): tends to increase | NonREM sleep time by EEG ([1]; 30 mg/kg saponarin orally, FIG. 10): tends to increase | mRNA expression of cholecystokinin in cerebral cortex (cholecystokinin): show increased expression or tend to show increased expression in statistically significant sense | travel distance (total distance moved), open field test ([2]; 10 mg/kg caffeine i.p. 1 hour later, FIG. 2, p<0.05): decreased in significant sense | mobility time, open field test ([2]; 10 mg/kg caffeine i.p., FIG. 3A, p<0.01): decreased in significant sense | mobility frequency, open field test ([2]; 10 mg/kg caffeine i.p., FIG. 3B, p<0.01): decreased in significant sense | immobility time, open field test ([2]; 10 mg/kg caffeine i.p., FIG. 4): increased | mRNA expression of neuropeptide Y in cerebral cortex (neuropeptide Y): show increased expression or tend to show increased expression in statistically significant sense

Reference: US11903957B2, “Composition for preventing, ameliorating, or treating sleep disturbance comprising flavonoid compound as effective component” (KOREA INSTITUTE OF ORIENTAL MEDICINE, priority 2018, dated 2024)
